{"source": "ChEMBL document CHEMBL2311349", "about": "“Evidence for a new binding mode to GSK-3: allosteric regulation by the marine compound palinurin” (Eur J Med Chem, 2013)", "key": {"[1]": {"target": "T1, Glycogen synthase kinase-3 beta (Homo sapiens, UniProt P49841)", "experiment": "Inhibition of human recombinant GSK-3beta using GS2 peptide as substrate and [gamma33P]-ATP at 50 uM after 30 mins by scintillation counting"}, "[2]": {"target": "T1, Glycogen synthase kinase-3 beta", "experiment": "Inhibition of human recombinant GSK-3beta using GS2 peptide as substrate and [gamma33P]-ATP after 30 mins by scintillation counting"}, "[3]": {"target": "T1, Glycogen synthase kinase-3 beta", "conditions": "SH-SY5Y, 15 to 200 uM", "description": "Inhibition of GSK-3beta in human SH-SY5Y cells assessed as reduction of tau phosphorylation at 15 to 200 uM after 18 hrs by ELISA sandwich method"}, "[4]": {"target": "Casein kinase II (Homo sapiens, UniProt P19784+P67870+P68400)", "sequence (P67870 whole entry)": "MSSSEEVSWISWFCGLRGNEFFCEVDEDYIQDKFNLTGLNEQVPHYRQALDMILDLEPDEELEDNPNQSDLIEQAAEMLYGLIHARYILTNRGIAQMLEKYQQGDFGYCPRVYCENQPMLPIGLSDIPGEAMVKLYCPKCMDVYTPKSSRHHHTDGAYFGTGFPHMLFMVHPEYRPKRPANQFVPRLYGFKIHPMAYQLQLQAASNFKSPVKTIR", "sequence (P68400 whole entry)": "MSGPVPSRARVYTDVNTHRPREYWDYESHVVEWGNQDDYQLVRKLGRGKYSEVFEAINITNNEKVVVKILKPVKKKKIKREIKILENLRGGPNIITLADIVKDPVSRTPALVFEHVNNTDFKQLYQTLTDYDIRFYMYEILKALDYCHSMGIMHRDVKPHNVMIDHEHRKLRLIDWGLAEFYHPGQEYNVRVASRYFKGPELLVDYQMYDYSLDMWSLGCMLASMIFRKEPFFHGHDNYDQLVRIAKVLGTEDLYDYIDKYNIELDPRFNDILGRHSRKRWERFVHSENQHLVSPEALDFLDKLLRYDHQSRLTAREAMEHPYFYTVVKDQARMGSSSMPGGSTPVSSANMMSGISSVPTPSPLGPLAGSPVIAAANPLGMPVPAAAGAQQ", "sequence (P19784 whole entry)": "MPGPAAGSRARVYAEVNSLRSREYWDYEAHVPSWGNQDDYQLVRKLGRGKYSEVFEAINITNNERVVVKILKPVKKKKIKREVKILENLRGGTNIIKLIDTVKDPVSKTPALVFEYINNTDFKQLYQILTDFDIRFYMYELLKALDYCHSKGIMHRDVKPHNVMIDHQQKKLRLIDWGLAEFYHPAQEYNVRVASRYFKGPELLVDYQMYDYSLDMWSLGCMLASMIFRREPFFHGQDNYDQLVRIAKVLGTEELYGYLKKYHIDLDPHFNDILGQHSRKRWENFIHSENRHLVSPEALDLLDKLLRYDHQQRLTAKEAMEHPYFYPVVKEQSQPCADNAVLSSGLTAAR", "experiment": "(§1) Inhibition of human recombinant CK2 using GS2 peptide as substrate and [gamma33P]-ATP after 30 mins by scintillation counting", "format": "protein-complex assay"}, "[5]": {"target": "Casein kinase II (Homo sapiens, UniProt P67870+P68400+P19784)", "sequence (P67870 whole entry)": "as the sequence (P67870 whole entry) above", "sequence (P68400 whole entry)": "as the sequence (P68400 whole entry) above", "sequence (P19784 whole entry)": "as the sequence (P19784 whole entry) above", "experiment": "as §1", "format": "protein-complex assay"}, "[6]": {"experiment": "Inhibition of human recombinant MAPK using […] as substrate and [gamma33P]-ATP after 15 mins by scintillation counting"}, "[7]": {"target": "Cyclin-dependent kinase 1 (Homo sapiens, UniProt P06493)", "sequence (P06493 whole entry)": "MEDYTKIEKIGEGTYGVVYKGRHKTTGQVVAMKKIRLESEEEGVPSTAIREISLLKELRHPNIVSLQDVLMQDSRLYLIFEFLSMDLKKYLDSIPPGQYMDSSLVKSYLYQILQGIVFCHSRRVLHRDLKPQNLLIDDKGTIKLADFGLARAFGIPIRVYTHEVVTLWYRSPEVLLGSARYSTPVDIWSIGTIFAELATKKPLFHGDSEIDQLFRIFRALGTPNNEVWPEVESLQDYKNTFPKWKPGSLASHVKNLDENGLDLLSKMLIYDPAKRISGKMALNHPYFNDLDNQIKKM", "experiment": "Inhibition of human recombinant CDK1 using histone H1 as substrate and [gamma33P]-ATP after 15 mins by scintillation counting"}, "[8]": {"target": "Cyclin-dependent kinase 5 (Homo sapiens, UniProt Q00535)", "sequence (Q00535 whole entry)": "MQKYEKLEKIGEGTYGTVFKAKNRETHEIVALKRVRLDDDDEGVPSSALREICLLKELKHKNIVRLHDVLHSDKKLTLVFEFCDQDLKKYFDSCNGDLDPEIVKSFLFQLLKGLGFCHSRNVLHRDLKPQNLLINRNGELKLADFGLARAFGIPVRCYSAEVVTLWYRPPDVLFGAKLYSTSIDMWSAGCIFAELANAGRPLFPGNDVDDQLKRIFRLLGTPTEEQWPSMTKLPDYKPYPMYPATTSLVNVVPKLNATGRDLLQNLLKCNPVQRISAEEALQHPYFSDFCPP", "experiment": "Inhibition of human recombinant CDK5 using histone H1 as substrate and [gamma33P]-ATP after 20 mins by scintillation counting"}, "[9]": {"target": "Glycogen synthase kinase-3 alpha (Homo sapiens, UniProt P49840)", "sequence (P49840 whole entry)": "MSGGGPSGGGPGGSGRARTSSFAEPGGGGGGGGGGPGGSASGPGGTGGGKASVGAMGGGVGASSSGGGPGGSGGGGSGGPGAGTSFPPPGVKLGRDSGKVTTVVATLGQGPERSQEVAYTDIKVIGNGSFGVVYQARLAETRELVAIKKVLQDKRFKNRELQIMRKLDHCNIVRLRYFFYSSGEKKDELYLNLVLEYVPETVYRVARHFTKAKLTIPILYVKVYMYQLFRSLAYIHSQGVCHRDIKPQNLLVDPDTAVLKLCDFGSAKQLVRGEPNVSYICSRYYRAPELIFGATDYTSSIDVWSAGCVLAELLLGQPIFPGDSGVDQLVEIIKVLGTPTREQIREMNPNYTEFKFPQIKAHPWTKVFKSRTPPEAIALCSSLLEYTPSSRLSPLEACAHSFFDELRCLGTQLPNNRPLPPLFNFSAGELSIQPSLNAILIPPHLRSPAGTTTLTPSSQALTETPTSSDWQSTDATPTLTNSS", "experiment": "Inhibition of human recombinant GSK-3alpha using GS2 peptide as substrate and [gamma33P]-ATP after 12 mins by scintillation counting"}, "[10]": {"experiment": "Cytotoxicity against human SH-SY5Y cells assessed as intracellular LDH level after 18 hrs", "format": "cell-based"}}, "note": "Calls of active or inactive are those of the source. The rule behind the calls is not given here."}
{"compound": "CCCCCCCCCC(=O)OC[C@H](O)[C@H]1OC(=O)C(O)=C1O", "values": [{"measurement": "inhibition", "setting": "[1]", "result": 86, "unit": "%"}, {"measurement": "IC50", "setting": "[2]; read-out: IC50", "result": 6.1, "unit": "µM"}]}
{"compound": "CCCCCCCC(=O)OC[C@H](O)[C@H]1OC(=O)C(O)=C1O", "values": [{"measurement": "inhibition", "setting": "[1]", "result": 65, "unit": "%"}, {"measurement": "IC50", "setting": "[2]; read-out: IC50", "result": "> 50", "unit": "µM"}, {"measurement": "IC50", "setting": "[2]; read-out: pIC50 (converted)", "result": "> 50.1", "unit": "µM"}]}
{"compound": "CCCCCCCCCCCCCC(=O)OC[C@H](O)[C@H]1OC(=O)C(O)=C1O", "values": [{"measurement": "IC50", "setting": "[2]; read-out: IC50", "result": "> 5.8", "unit": "µM"}, {"measurement": "IC50", "setting": "[2]; read-out: pIC50 (converted)", "result": 5.75, "unit": "µM"}]}
{"compound": "O=C1O[C@H]([C@@H](O)CO)C(O)=C1O", "values": [{"measurement": "inhibition", "setting": "[1]", "result": 80, "unit": "%"}]}
{"compound": "CC1=C(O)[C@@H](C/C(C)=C/CCC(C)/C=C/C=C(\\C)CCCc2ccoc2)OC1=O", "note": "(stereo in doubt; A)", "values": [{"measurement": "inhibition", "setting": "[3]", "result": "Active"}]}
{"compound": "CC1=C(O)[C@@H](C/C(C)=C/CCC(C)/C=C/C=C(\\C)CCCc2ccoc2)OC1=O", "note": "(stereo in doubt; A) [PALINURIN]", "values": [{"measurement": "IC50", "setting": "[4]", "result": "> 100", "unit": "µM"}, {"measurement": "IC50", "setting": "[5]", "result": "> 100", "unit": "µM"}, {"measurement": "IC50", "setting": "[6]", "result": "> 100", "unit": "µM"}, {"measurement": "pIC50", "setting": "[6]", "result": "< 4"}, {"measurement": "IC50", "setting": "[2]; read-out: IC50", "result": 2.6, "unit": "µM"}, {"measurement": "IC50", "setting": "[7]; read-out: IC50", "result": "> 100", "unit": "µM"}, {"measurement": "IC50", "setting": "[7]; read-out: pIC50 (converted)", "result": "> 100", "unit": "µM"}, {"measurement": "IC50", "setting": "[8]; read-out: IC50", "result": "> 25", "unit": "µM"}, {"measurement": "IC50", "setting": "[8]; read-out: pIC50 (converted)", "result": "> 25.1", "unit": "µM"}, {"measurement": "IC50", "setting": "[9]", "result": 1.6, "unit": "µM"}]}
{"compound": "CC1=C(O)[C@@H](C/C(C)=C/CCC(C)/C=C/C=C(\\C)CCCc2ccoc2)OC1=O", "note": "(stereo in doubt; B)", "values": [{"measurement": "inhibition", "setting": "[3]", "result": "Active"}]}
{"compound": "CC1=C(O)[C@@H](C/C(C)=C/CCC(C)/C=C/C=C(\\C)CCCc2ccoc2)OC1=O", "note": "(stereo in doubt; B) [PALINURIN]", "values": [{"measurement": "Activity", "setting": "[10]", "result": "Non-toxic"}, {"measurement": "IC50", "setting": "[2]; read-out: IC50", "result": 1.9, "unit": "µM"}]}
{"compound": "CC1=C(O)/C(=C/[C@H](C)CCC/C(C)=C/CCc2coc(Cc3ccoc3)c2)OC1=O", "note": "[IRCININ 1]", "values": [{"measurement": "IC50", "setting": "[2]; read-out: IC50", "result": 0.8, "unit": "µM"}]}
{"compound": "CC1=C(O)/C(=C/[C@H](C)CC/C=C(/C)CCCc2coc(Cc3ccoc3)c2)OC1=O", "note": "[IRCININ 2]", "values": [{"measurement": "IC50", "setting": "[2]; read-out: IC50", "result": 2.3, "unit": "µM"}]}
